The source of these data is patent publication US20240150340A1, “CDK Inhibitors And Their Use As Pharmaceuticals” (Prelude Therapeutics Incorporated, priority 2022, published 2024).

pIC50: −log10 of the molar value. Bounds are passed on as bounds.

The pIC50 is the IC50 on a negative log10 scale, so that one unit is a factor of ten.

One assay addresses T1, CDK4/Cyclin D1 (Homo sapiens, UniProt P11802).
T1 construct: purchased ProQinase; host or cells: insect cell
Briefly: CDK4/CyclinD1 Enzymatic Activity Assay (TR-FRET). In kind it is biochemical. To be noted: ATP 2 mM final, read-out: CDK4_D1 IC50. The gist of the method: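 Insect-cell-expressed CDK4/Cyclin D1 (1 nM) with ULight-4E-BP1 (100 nM) and 2 mM ATP in HEPES pH 7.4; 9-dose 3-fold compound series preincubated 20 min, reaction started with 10 mM MgCl2, 45 min at 37° C. Europium anti-P-4E-BP1 TR-FRET read; IC50 from 4-parameter Hill fit.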
In general terms: TR-FRET usually uses a lanthanide donor and a delayed reading to cut background.

A further assay deals with T2, CDK2/Cyclin E2 (Homo sapiens, UniProt P24941).
T2 construct: Recombinant protein complex CDK2/Cyclin E2, expressed from insect cell, was purchased from ProQinase
Briefly: CDK2/CyclinE2 Enzymatic Activity Assay (TR-FRET). The assay is classed as biochemical. The following applies: ATP 1 mM final, read-out: CDK2_E1 IC50. In a few lines: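 Recombinant insect-cell CDK2/Cyclin E2 (1 nM) phosphorylated ULight-4E-BP1 (50 nM) with 1 mM ATP in HEPES pH 7.4 buffer, after 20 min compound preincubation; MgCl2 (10 mM) started the 45 min reaction at 37° C. Europium anti-phospho-4E-BP1 TR-FRET read; 9-dose IC50 by 4-parameter fit.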

In the next assay the test system is OVCAR3 p-RB. Briefly: pRB ICW Assay in OVCAR3 Cells. In kind it is cell-based. To be noted: Homo sapiens, OVCAR-3, incubated with compound for 2 hours. In a few lines: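 In-Cell Western on OVCAR3: phospho-RB antibody signal with DRAQ5 counterstain read at 700 and 800 nm after fixation. Compounds were applied for 2 h at 37° C. as 9-point ½-log dilutions in duplicate; 10 μM reference compound defined full inhibition.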

T1 sequence (P11802 whole entry): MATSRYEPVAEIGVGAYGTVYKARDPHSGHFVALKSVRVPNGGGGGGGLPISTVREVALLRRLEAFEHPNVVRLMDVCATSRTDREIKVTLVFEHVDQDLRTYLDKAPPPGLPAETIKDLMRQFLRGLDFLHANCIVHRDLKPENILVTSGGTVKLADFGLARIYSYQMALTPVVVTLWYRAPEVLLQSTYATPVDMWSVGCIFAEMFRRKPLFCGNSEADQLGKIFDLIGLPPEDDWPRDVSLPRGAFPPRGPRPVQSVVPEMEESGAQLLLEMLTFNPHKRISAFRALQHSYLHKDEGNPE
T1 sequence (P24385 whole entry partner): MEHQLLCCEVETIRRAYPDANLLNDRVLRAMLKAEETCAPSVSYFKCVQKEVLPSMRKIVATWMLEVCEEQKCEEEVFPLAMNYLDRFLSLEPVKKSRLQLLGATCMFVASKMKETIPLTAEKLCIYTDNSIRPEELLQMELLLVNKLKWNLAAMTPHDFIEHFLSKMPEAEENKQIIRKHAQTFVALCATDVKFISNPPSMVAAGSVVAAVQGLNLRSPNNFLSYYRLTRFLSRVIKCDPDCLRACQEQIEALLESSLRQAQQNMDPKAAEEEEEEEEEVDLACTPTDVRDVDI

`Cc1sc(-c2nc(NC3CCN(S(=O)(=O)c4cnc(N)s4)CC3)ncc2C(F)(F)F)cc1C#N` [Example 93, 5-(2-((1-((2-Aminothiazol-5-yl)sulfonyl)piperidin-4-yl)amino)-5-(trifluoromethyl)pyrimidin-4-yl)-2-methylthiophene-3-carbonitrile]: the pIC50 at CDK4/Cyclin D1 is 6.30 to 7.00; on CDK2/Cyclin E2, at least 7.00; with OVCAR3 p-RB it was 6.30 to 7.00.

`Cc1sc(-c2nc(N[C@H]3CCN(S(=O)(=O)c4cnc(N)s4)C[C@H]3C)ncc2C(F)(F)F)cc1C#N` [Example 94, 5-(2-(((3R,4S)-1-((2-aminothiazol-5-yl)sulfonyl)-3-methylpiperidin-4-yl)amino)-5-(trifluoromethyl)pyrimidin-4-yl)-2-methylthiophene-3-carbonitrile]: the values for the pIC50 at CDK4/Cyclin D1, at CDK2/Cyclin E2 and with OVCAR3 p-RB were under 6.30, at least 7.00 and 6.30 to 7.00, respectively.

With `C[C@@H]1CN(S(=O)(=O)c2cnn(C)c2)CC[C@@H]1Nc1ncc(C(F)(F)F)c(-c2ncc(C(C)(C)O)s2)n1` [Example 100, 2-(2-(2-(((3R,4S)-3-methyl-1-((1-methyl-1H-pyrazol-4-yl)sulfonyl)piperidin-4-yl)amino)-5-(trifluoromethyl)pyrimidin-4-yl)thiazol-5-yl)propan-2-ol], the pIC50 at CDK4/Cyclin D1, at CDK2/Cyclin E2 and in the assay with OVCAR3 p-RB was at least 7.00 in each case.

For `CC(O)(c1cnc(-c2nc(NC3CCN(S(C)(=O)=O)CC3)ncc2C(F)(F)F)s1)C(F)(F)F` (stereo not drawn) [Example 103, 1,1,1-trifluoro-2-(2-(2-((1-(methylsulfonyl)piperidin-4-yl)amino)-5-(trifluoromethyl)pyrimidin-4-yl)thiazol-5-yl)propan-2-ol], the negative logarithm of the IC50 (pIC50) at CDK4/Cyclin D1, on CDK2/Cyclin E2 and with OVCAR3 p-RB was at least 7.00 each time.

As to `C[C@@H]1CN(S(=O)(=O)c2cn(C)cn2)CC[C@@H]1Nc1ncc(C(F)(F)F)c(-c2ncc(C(C)(O)C(F)F)s2)n1` (stereo partly drawn) [Example 104, 1,1-difluoro-2-(2-(2-(((3R,4S)-3-methyl-1-((1-methyl-1H-imidazol-4-yl)sulfonyl)piperidin-4-yl)amino)-5-(trifluoromethyl)pyrimidin-4-yl)thiazol-5-yl)propan-2-ol], the pIC50 on CDK4/Cyclin D1, on CDK2/Cyclin E2 and with OVCAR3 p-RB was at least 7.00 in each case.

Regarding `CC(C)(O)Cc1cnc(-c2nc(NC3CCN(S(C)(=O)=O)CC3)ncc2C(F)(F)F)s1` [Example 107, 2-Methyl-1-(2-(2-((1-(methylsulfonyl)piperidin-4-yl)amino)-5-(trifluoromethyl)pyrimidin-4-yl)thiazol-5-yl)propan-2-ol], the pIC50 at CDK4/Cyclin D1, on CDK2/Cyclin E2 and in the assay with OVCAR3 p-RB was at least 7.00 in each case.

Turning to `CC(C)(O)Cc1cnc(-c2nc(N[C@H]3CCN(S(C)(=O)=O)C[C@H]3F)ncc2C(F)(F)F)s1` [Example 108, 1-(2-(2-(((3R,4S)-3-fluoro-1-(methylsulfonyl)piperidin-4-yl)amino)-5-(trifluoromethyl)pyrimidin-4-yl)thiazol-5-yl)-2-methylpropan-2-ol], the pIC50 at CDK4/Cyclin D1 was at least 7.00; at CDK2/Cyclin E2 it was at least 7.00; in the assay on OVCAR3 p-RB, 6.30 to 7.00.

Turning to `Cn1cc(S(=O)(=O)N2CC[C@H](Nc3ncc(C(F)(F)F)c(-c4ncc(CC(C)(C)O)s4)n3)[C@H](F)C2)cn1` [Example 109, 1-(2-(2-(((3R,4S)-3-fluoro-1-((1-methyl-1H-pyrazol-4-yl)sulfonyl)piperidin-4-yl)amino)-5-(trifluoromethyl)pyrimidin-4-yl)thiazol-5-yl)-2-methylpropan-2-ol], the pIC50 on CDK4/Cyclin D1, on CDK2/Cyclin E2 and in the assay with OVCAR3 p-RB was at least 7.00 in each case.

As for `CC(O)c1cnc(-c2nc(N[C@H]3CCN(S(=O)(=O)c4cnn(C)c4)C[C@H]3F)ncc2C(F)(F)F)s1` (stereo partly drawn) [Example 114, 1-(2-(2-(((3R,4S)-3-fluoro-1-((1-methyl-1H-pyrazol-4-yl)sulfonyl)piperidin-4-yl)amino)-5-(trifluoromethyl)pyrimidin-4-yl)thiazol-5-yl)ethan-1-ol], the pIC50 on CDK4/Cyclin D1 is at least 7.00; on CDK2/Cyclin E2, at least 7.00; in the assay on OVCAR3 p-RB, 6.30 to 7.00.

Turning to `C[C@@H]1CN(S(C)(=O)=O)CC[C@@H]1Nc1ncc(C(F)(F)F)c(-c2ncc(CC(C)(C)O)s2)n1` [Example 131, 2-methyl-1-(2-(2-(((3R,4S)-3-methyl-1-(methylsulfonyl)piperidin-4-yl)amino)-5-(trifluoromethyl)pyrimidin-4-yl)thiazol-5-yl)propan-2-ol], the figures for the negative logarithm of the IC50 (pIC50) at CDK4/Cyclin D1, at CDK2/Cyclin E2 and with OVCAR3 p-RB were 6.30 to 7.00, at least 7.00 and under 6.30, respectively.

As to `C[C@@H]1CN(S(C)(=O)=O)CC[C@@H]1Nc1ncc(C(F)(F)F)c(-c2ncc(C(C)(C)O)s2)n1` [Example 132, 2-(2-(2-(((3R,4S)-3-methyl-1-(methylsulfonyl)piperidin-4-yl)amino)-5-(trifluoromethyl)pyrimidin-4-yl)thiazol-5-yl)propan-2-ol], the pIC50 at CDK4/Cyclin D1 is 6.30 to 7.00; at CDK2/Cyclin E2 it was at least 7.00; in the assay with OVCAR3 p-RB, under 6.30.

`C[C@@H]1CN(S(C)(=O)=O)CC[C@@H]1Nc1ncc(C(F)(F)F)c(-c2ncc(C(C)(O)C(F)F)s2)n1` (stereo partly drawn) [Example 142, 1,1-difluoro-2-(2-(2-(((3R,4S)-3-methyl-1-(methylsulfonyl)piperidin-4-yl)amino)-5-(trifluoromethyl)pyrimidin-4-yl)thiazol-5-yl)propan-2-ol]: the pIC50 on CDK4/Cyclin D1 was 6.30 to 7.00; on CDK2/Cyclin E2 it was at least 7.00; in the assay with OVCAR3 p-RB, 6.30 to 7.00.
